The values that follow come from US9115061B2, “Naphthalene-based inhibitors of anti-apoptotic proteins” (BURNHAM INSTITUTE FOR MEDICAL RESEARCH, priority 2007, dated 2015).

Usually EC50 stands for the concentration at which the effect is half-maximal. A word on the IC50: it is the midpoint of a concentration-inhibition curve.

The test system of one data set is H1299 cell line. In words: Cell viability, ATP-LITE assay. It counts as cell-based, human. The following applies: 72 hours. As for the experimental part: (§1) The activity of the compounds against human cancer cell lines (PC3ML, H460, H1299, RS11846) were assessed by using the ATP-LITE assay (PerkinElmer). All cells were seeded in either F12 or RPMI1640 medium with 5 mM L-glutamine supplemented with 5% fetal bovine serum (Mediatech Inc.), penicillin and streptomycin (Omega). For maintenance, cells were cultured in 5% FBS. Cells plated into 96 well plates at varying initial densities depending on doubling time. H460 and H1299 plated at 2000 cells/well, A549 and PC3 at 3000 cells/well, and RS118456S at 10,000 cells/well. Compounds were diluted to final concentrations with 0.1% DMSO. Prior to dispensing compounds onto cells, fresh 5% media was placed into wells. Administration of compounds occurred 24 hours after seeding into the fresh media. Cell viability was evaluated using ATP-LITE reagent (PerkinElmer) after 72 hours of treatment. Data were normalized to the DMSO control-treated cells using Prism version 5.01 (Graphpad Software).

In a further data set the test system is H460 cell line. In words: Cell viability, ATP-LITE assay. It counts as cell-based, human. The following applies: 72 hours, ATP-LITE. As for the experimental part:
as §1

Another data set concerns PC3ML cells. Put plainly: Cell viability, ATP-LITE assay. The class given is cell-based, human. The following applies: 72 hours, ATP-LITE. As for the experimental part:
as §1

The test system of data set [1] is RS11846 cell line. Put plainly: Cell viability, ATP-LITE assay. It counts as cell-based, human. The following applies: 72 hours. As for the experimental part: as §1
Data set [2] relates to RS11846 cell line. In words: Apoptosis, Annexin V and propidium iodide assay. It counts as cell-based, human. The following applies: 1-2 days; read-out: RS11846 EC50 (Annexin V- and propidium iodide assay).
The subject of a further data set is Balb/c mice. Put plainly: Oral toxicity study in normal Balb/c mice. The class given is in vivo, mouse. The following applies: […] oral, three weeks. As for the experimental part: Compounds or vehicle control were dosed 15 times over 3 weeks, giving compounds daily for 5 consecutive days (Monday-Friday), resting on weekends.
Both compounds were provided by NCI-DTP (RAID-program). Compounds were dissolved in 100% sesame oil just before oral administration. Vehicle-control consisted of corresponding concentration of ascorbic acid suspended in 100% sesame oil.
(§2) Spleens were removed and weighed.
Whole blood (250 μl) was collected in EDTA-coated glass tubes (purple top; MICROTAINER Brand Tube with EDTA, Catalogue #365973, Becton, Dickinson and Company, New Jersey 07417-1885) via either cardiac puncture or severing the brachial artery of anesthetized mice. After thorough mixing, specimens were analyzed using a VetScan HM2 (Abaxis Inc., Union City, Calif. 94587) hematology analyzer, measuring white blood cell count (WBC), red blood cell count (RBC), platelet (PLT) count, leukocyte differential (including % lymphocyte, % monocyte and % granulocyte), hematocrit (Ht), and hemoglobin (Hb).
(Eppendorf Centrifuge 5415C) for 2 minutes to separate serum from cells and fibrin clot. The resulting serum specimens were analyzed using an automated blood chemistry analyzer (“COBAS MIRA Classic”; Roche, Indianapolis, Ind. 46250-0414) to measure alanine aminotransferase (ALT) and aspartate aminotransferase AST), blood urea nitrogen (BUN), and […].
Stomach and intestines were examined also imaged by ultrasound for evidence of dilation, an indication of GI toxicity. Briefly, mice were anesthetized using a mixture of isofluorane (5%) and oxygen gas (95%), restrained on a heated table using Aquagel Lubrication Gel (Parker Laboratories, Inc., Fairfield, N.J. 07004), and abdominal hair was removed with a chemical depilation agent (Nair™ Hair Removal, Church & Dwight Co., Inc., Princeton, N.J. 08543). Aquasonic 100 Ultrasound Transmission Gel (Parker Laboratories, Inc., Fairfield, N.J. 07004) was applied to the abdomen prior to imaging using a high-frequency probe to assess gas and intestinal distention.
Immediately after ultrasound imaging, electrocardiogram (ECG) analysis of anesthetized mice was performed using a MP150 Biopack System.

For the next data set, the system named is 380 cell line. Put plainly: Apoptosis induction in NHL B-cell lines, Annexin V-FITC/PI. The following applies: 48 hours, relative to DOHH2 and RS11846. The class given is cell-based. As for the experimental part: (§3) After 48 hours of incubation, % viability was determined by FACSort after staining cells by the use of an Annexin V-FITC/PI Apoptosis Detection kit (BioVision Inc.). Viable cells were defined by Annexin V-negative, PI-negative cells.

For a further data set, the system named is DOHH2 cell line. Described as above. It counts as cell-based. The following applies: 48 hours; read-out: IC50, % viability DOHH2. As for the experimental part: as §3
The test system of data set [3] is RS11846 cell line. The data set is described as above. The class given is cell-based. The following applies: 48 hours; read-out: IC50, % viability RS11846. On the procedure:
as §3

The subject of data set [4] is murine B-cells from BCL-2 transgenic mice. In words: Viability of cultured splenocytes, Annexin V-FITC/PI. It counts as cell-based. The following applies: 18 hours; read-out: IC50, induction of apoptosis in cultured B-cells of BCL-2 transgenic mouse. On the procedure:
(§4) Spleens were excised from sacrificed mice and cell suspensions treated with a mouse erythrocyte lysing kit (R & D Systems). Total splenocyte count was determined by typan blue dye exclusion assays using hemocytometers. The percentage of B-lymphocytes was determined by fluorescence activated cell sorter (FACS) analysis SACS-CANTO, Bectin-Dickinson Inc., Mountain View, Calif.) following staining cells with Phyco-Erytrin (PE)-conjugated anti-CD19 or -B220 antibodies (Becton Dickinson, San Jose, Calif. 95131).
After 18 hours of incubation, % viability of splenocytes was determined by FACSort after staining cells by the use of an Annexin V-FITC/PI Apoptosis Detection kit (BioVision Inc.). Viable cells were defined by Annexin V-negative, PI-negative cells.

The test system of a further data set is BCL-2 transgenic mice. In words: Oral efficacy study in BCL-2 transgenic mice (splenomegaly). The following applies: QDX5 for 3 weeks. It counts as in vivo, mouse. On the procedure:
The transgene was propagated on the Balb/c background.
as §2, §4
Representative data are shown by FIGS. 11A and 11B.

Another data set addresses BIR3 domain of XIAP (Homo sapiens (Human), UniProt P98170). In words: Reactivity test by [15N,1H]-correlation NMR. The following applies: 1 mM gossypol, 200 μM BIR3, two hours. As for the experimental part: Pure polyphenols were obtained from SIGMA (gossypol and purpurogallin) and/or from Microsource Discovery Systems (Purpurogallin derivatives). Reference compounds were obtained from Chembridge Corp. (San Diego). Gossypol was tested as a racemic mixture of (+) and (−) isomers. Compounds were dissolved in DMSO at 100 mM concentration and stored at −20 DC. NMR analysis was periodically performed on the compounds as a quality control, prior to further dilution for binding and displacement assays.

The conditions of data set [5]: orally 0.06 mmol/kg daily for up to 21 days; cited from earlier work.

Chain of BIR3 domain of XIAP (P98170 241-356): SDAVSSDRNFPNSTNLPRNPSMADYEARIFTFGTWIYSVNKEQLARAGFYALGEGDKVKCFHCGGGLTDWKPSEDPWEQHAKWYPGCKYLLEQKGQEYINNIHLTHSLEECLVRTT

For `Cc1cc2c(C(C)C)c(O)c(O)c(C=O)c2c(O)c1-c1c(C)cc2c(C(C)C)c(O)c(O)c(C=O)c2c1O` [Gossypol, gossypol], the EC50 with H1299 cell line stood at 6 µM; with H460 cell line, 3 µM; in the data set with PC3ML cells, 3.1 µM; with RS11846 cell line [1], 2.2 µM; in the data set on RS11846 cell line [2], 4.23 µM. The “general condition of mice” value with Balb/c mice is reported as “lethagic with scruffy hair”. The “sensitivity of 380 cell line” value in the data set on 380 cell line is “slightly more resistant”. The concentration for half-maximal inhibition (IC50) was around 3 µM with DOHH2 cell line, around 3 µM in the data set on RS11846 cell line [3] and around 10 µM in data set [4]. For the same compound, in the data set with BCL-2 transgenic mice (0.06 mmol/kg oral), the “tolerability, low dose” value is reported as “well tolerated”. Besides, the “shrinkage of spleen, low dose” value in the data set on BCL-2 transgenic mice (0.06 mmol/kg oral, wet weight and B-cell count) was “induced shrinkage of spleen to a considerable extent but not significantly”. For the same compound, the “tolerability, high dose” value in the data set on BCL-2 transgenic mice ([…] oral) is given as “not tolerated”. Moreover, the “reactivity with 15N-labeled BIR3, spectrum versus apo-Bir3” value on BIR3 domain of XIAP is recorded as “No appreciable differences”. Besides, the anti-tumor activity result in data set [5] is “show anti-tumor activity”. The lethality entry in data set [5] was “non-lethal”.
